Reference: ChEMBL document CHEMBL1123199, “Synthesis and structure-activity relationships of naftifine-related allylamine antimycotics” (1986)
In brackets after ≈: the same amount, converted by molar mass.

Columns and labels:
[1] = tested on: Aspergillus fumigatus; experiment: Antifungal activity measured against Aspergillus fumigatus; assay type: functional
[2] = tested on: Candida parapsilosis; experiment: Antifungal activity against Candida parapsilosis.; assay type: functional; settings: Lodderomyces parapsilosis
[3] = tested on: Epidermophyton floccosum; experiment: Antifungal activity against Epidermophyton floccosum.; assay type: functional
[4] = tested on: Microsporum canis; experiment: Antifungal activity against Microsporum canis; assay type: functional
[5] = tested on: Sporothrix schenckii; experiment: Antifungal activity measured against Sporothrix schenck ii.; assay type: functional
[6] = tested on: Trichophyton benhamiae; experiment: Antifungal activity measured against Trichophyton mentagrophytes; assay type: functional, Arthroderma benhamiae
[7] = tested on: Cavia porcellus; experiment: In vivo antifungal activity by topical treatment of guinea pig dermatophytosis caused by Trichophyton mentagrophytes at a dose of 0.1%; assay type: functional
[8] = tested on: Cavia porcellus; experiment: In vivo antifungal activity by topical treatment of guinea pig dermatophytosis caused by Trichophyton mentagrophytes at a dose of 0.5%; assay type: functional
[9] = tested on: Cavia porcellus; experiment: In vivo antifungal activity by topical treatment of guinea pig dermatophytosis caused by Trichophyton mentagrophytes at a dose of 2%; assay type: functional
[10] = Antifungal activity against Trichophyton mentagrophytes.; assay type: functional, Arthroderma benhamiae; settings: Trichophyton benhamiae

SMILES | MIC [1] [µg/mL] | MIC [2] [µg/mL] | MIC [3] [µg/mL] | MIC [4] [µg/mL] | MIC [5] [µg/mL] | MIC [6] [µg/mL] | MIC [10] [µg/mL] | Activity [7] [%] | Activity [8] [%] | Activity [9] [%]
CN(C/C=C/c1ccccc1)Cc1coc2ccccc12 | > 100 | 25 (≈ 90.1 µM) | 12.5 (≈ 45.1 µM) | 1.6 (≈ 5.77 µM) | 100 (≈ 361 µM) | 1.6 (≈ 5.77 µM) | – | – | – | –
CN(C/C=C/c1cccs1)Cc1cccc2ccccc12 | 100 (≈ 341 µM) | 6.2 (≈ 21.1 µM) | 0.2 (≈ 0.682 µM) | 0.2 (≈ 0.682 µM) | 3.1 (≈ 10.6 µM) | 0.1 (≈ 0.341 µM) | – | 13 | 56 | 96
CN(C/C=C/c1ccc(Cl)cc1)Cc1cccc2ccccc12 | > 100 | 100 (≈ 311 µM) | 0.4 (≈ 1.24 µM) | 0.4 (≈ 1.24 µM) | 3.1 (≈ 9.63 µM) | 0.2 (≈ 0.621 µM) | – | 0 | 25 | 44
CN(C/C=C/c1ccccc1)Cc1c2ccccc2cc2ccccc12 | 100 (≈ 296 µM) | 100 (≈ 296 µM) | 0.4 (≈ 1.19 µM) | 0.8 (≈ 2.37 µM) | 50 (≈ 148 µM) | 0.8 (≈ 2.37 µM) | – | 0 | 0 | 38
CN(C/C=C/c1cccc2ccccc12)Cc1ccccc1 | > 100 | > 100 | 100 (≈ 348 µM) | 100 (≈ 348 µM) | 100 (≈ 348 µM) | – | 100 (≈ 348 µM) | – | – | –
CN(C/C=C/c1ccccc1)Cc1cccc2c1CCCC2 | > 100 | 50 (≈ 172 µM) | 0.8 (≈ 2.75 µM) | 0.8 (≈ 2.75 µM) | 3.1 (≈ 10.6 µM) | 0.4 (≈ 1.37 µM) | – | 0 | 22 | 50
CN(C/C=C/c1ccccc1)c1cccc2ccccc12 | > 100 | > 100 | > 100 | > 100 | > 100 | – | 6.2 (≈ 22.7 µM) | – | – | –
CN(C/C=C/c1ccccn1)Cc1cccc2ccccc12 | > 100 | > 100 | 12.5 (≈ 43.3 µM) | 12.5 (≈ 43.3 µM) | 100 (≈ 347 µM) | < 1.6 | – | 0 | 0 | 7
C(=C\c1ccccc1)/COCc1cccc2ccccc12 | > 100 | > 100 | > 100 | > 100 | > 100 | – | 3.1 (≈ 11.3 µM) | – | – | –
CN(C/C=C/c1ccccc1)C1CCCc2ccccc21 (stereo unspecified) | > 100 | > 100 | 50 (≈ 180 µM) | 50 (≈ 180 µM) | 100 (≈ 360 µM) | – | 12.5 (≈ 45.1 µM) | – | – | –
CN(C/C=C/c1ccccc1)Cc1cn(C)c2ccccc12 | > 100 | 25 (≈ 86.1 µM) | ≤ 1.6 | ≤ 1.6 | ≤ 1.6 | ≤ 1.6 | – | 0 | 0 | 88
CCN(C/C=C/c1ccccc1)Cc1cccc2ccccc12 | 100 (≈ 332 µM) | 12.5 (≈ 41.5 µM) | < 1.6 | < 1.6 | 12.5 (≈ 41.5 µM) | < 1.6 | – | 19 | 25 | 81
Cc1ccc(/C=C/CN(C)Cc2cccc3ccccc23)cc1 | > 100 | 50 (≈ 166 µM) | < 1.6 | < 1.6 | 12.5 (≈ 41.5 µM) | < 1.6 | – | 7 | 22 | 50
CN(C/C=C/c1ccccc1)Cc1ccnc2ccccc12 | > 100 | 2.5 (≈ 8.67 µM) | 1.6 (≈ 5.55 µM) | 1.6 (≈ 5.55 µM) | 12.5 (≈ 43.3 µM) | 1.6 (≈ 5.55 µM) | – | 0 | 0 | 3
CCOC(=O)/C=C/CN(C)Cc1cccc2ccccc12 | > 100 | > 100 | 3.1 (≈ 10.9 µM) | 6.25 (≈ 22.1 µM) | 12.5 (≈ 44.1 µM) | < 1.6 | – | 0 | 0 | 16
C(=C\c1ccccc1)/CNCc1cccc2ccccc12 [N-DEALKYL NAFTIFINE] | > 100 | > 100 | 100 (≈ 366 µM) | 100 (≈ 366 µM) | 100 (≈ 366 µM) | 12.5 (≈ 45.7 µM) | – | – | – | –

Compounds with a lower MIC [1], results first:

MIC [1] [µg/mL] | MIC [2] [µg/mL] | MIC [3] [µg/mL] | MIC [4] [µg/mL] | MIC [5] [µg/mL] | MIC [6] [µg/mL] | MIC [10] [µg/mL] | SMILES | Activity [7] [%] | Activity [8] [%] | Activity [9] [%]
50 (≈ 180 µM) | 6.2 (≈ 22.3 µM) | 0.2 (≈ 0.721 µM) | 0.2 (≈ 0.721 µM) | 3.1 (≈ 11.2 µM) | 0.1 (≈ 0.36 µM) | – | CN(C/C=C/C1=CCCC1)Cc1cccc2ccccc12 | 30 | 91 | 100
50 (≈ 166 µM) | 3.1 (≈ 10.3 µM) | 0.2 (≈ 0.663 µM) | 0.4 (≈ 1.33 µM) | 3.1 (≈ 10.3 µM) | 0.1 (≈ 0.332 µM) | – | CC(c1cccc2ccccc12)N(C)C/C=C/c1ccccc1 (stereo unspecified) | 15 | 75 | 100
25 (≈ 87 µM) | 3.1 (≈ 10.8 µM) | 0.2 (≈ 0.696 µM) | 0.2 (≈ 0.696 µM) | 3.1 (≈ 10.8 µM) | 0.1 (≈ 0.348 µM) | – | CN(C/C=C\c1ccccc1)Cc1cccc2ccccc12 | 34 | 47 | 100
12.5 (≈ 41.5 µM) | > 100 | ≤ 1.6 | ≤ 1.6 | 25 (≈ 82.9 µM) | ≤ 1.6 | – | CN(C/C=C/c1ccccc1)C(=O)c1cccc2ccccc12 | 0 | 0 | 60
50 (≈ 154 µM) | 25 (≈ 76.8 µM) | < 1.6 | < 1.6 | < 1.6 | < 1.6 | – | CCCCCOC(=O)/C=C/CN(C)Cc1cccc2ccccc12 | 0 | 0 | 10
12.5 (≈ 42.6 µM) | 1.6 (≈ 5.45 µM) | 0.1 (≈ 0.341 µM) | 0.1 (≈ 0.341 µM) | 1.6 (≈ 5.45 µM) | 0.1 (≈ 0.341 µM) | – | CN(C/C=C/c1ccccc1)Cc1cccc2sccc12 | – | 75 | 100
12.5 (≈ 42.9 µM) | 0.8 (≈ 2.75 µM) | 0.1 (≈ 0.343 µM) | 0.1 (≈ 0.343 µM) | 0.8 (≈ 2.75 µM) | 0.05 (≈ 0.172 µM) | – | CN(C/C=C/C1=CCCCC1)Cc1cccc2ccccc12 | 41 | 97 | 100
25 (≈ 81.9 µM) | 3.1 (≈ 10.2 µM) | 0.1 (≈ 0.327 µM) | 0.2 (≈ 0.655 µM) | 1.6 (≈ 5.24 µM) | 0.1 (≈ 0.327 µM) | – | CN(C/C=C/c1ccc(F)cc1)Cc1cccc2ccccc12 | 21 | 82 | 100
50 (≈ 170 µM) | 6.2 (≈ 21.1 µM) | 0.1 (≈ 0.341 µM) | 0.2 (≈ 0.682 µM) | 3.1 (≈ 10.6 µM) | 0.1 (≈ 0.341 µM) | – | CN(C/C=C/c1ccsc1)Cc1cccc2ccccc12 | 7 | 47 | 100
25 (≈ 81.8 µM) | 1.6 (≈ 5.24 µM) | 0.1 (≈ 0.327 µM) | 0.05 (≈ 0.164 µM) | 0.8 (≈ 2.62 µM) | 0.05 (≈ 0.164 µM) | – | CN(C/C=C/C1=CCCCCC1)Cc1cccc2ccccc12 | 29 | 85 | 100
50 (≈ 172 µM) | 6.2 (≈ 21.3 µM) | 0.4 (≈ 1.37 µM) | 0.4 (≈ 1.37 µM) | 6.2 (≈ 21.3 µM) | 0.2 (≈ 0.686 µM) | – | CN(C/C=C/c1ccccc1)CC1=CCOc2ccccc21 | – | – | 82
25 (≈ 85.2 µM) | 3.1 (≈ 10.6 µM) | 0.2 (≈ 0.682 µM) | 0.2 (≈ 0.682 µM) | 1.6 (≈ 5.45 µM) | 0.1 (≈ 0.341 µM) | – | CN(C/C=C/c1ccccc1)Cc1csc2ccccc12 | 0 | 54 | 97
